Source: ChEMBL document CHEMBL6127128, “Discovery of the First-in-Class Dual-Target ROCK/HDAC Inhibitor with Potent Antitumor Efficacy in Vivo That Trigger Antitumor Immunity” (J Med Chem, 2024)
Active and inactive are the calls of the source. No cut-off for these calls is given here.

Legend:
[1] = molecular target: T1, Histone deacetylase 11 (Homo sapiens, UniProt Q96DB2); experiment: Inhibition of HDAC11 (unknown origin) using Ac-Leu-Gly-Lys(Ac)-AMC as substrate preincubated for 5 mins followed by substrate addition for 30 mins and measured following trypsin addition for 30 mins by fluorescence based analysis
T1 sequence (Q96DB2 whole entry): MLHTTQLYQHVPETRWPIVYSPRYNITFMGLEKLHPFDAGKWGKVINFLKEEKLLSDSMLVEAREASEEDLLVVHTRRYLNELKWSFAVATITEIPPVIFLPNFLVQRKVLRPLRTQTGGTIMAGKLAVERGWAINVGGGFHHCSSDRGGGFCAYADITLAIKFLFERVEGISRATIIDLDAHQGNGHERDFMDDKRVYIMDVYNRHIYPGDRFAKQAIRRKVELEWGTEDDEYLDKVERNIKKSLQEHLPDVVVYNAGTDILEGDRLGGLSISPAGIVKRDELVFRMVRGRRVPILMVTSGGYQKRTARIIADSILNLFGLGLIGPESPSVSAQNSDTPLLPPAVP

[2] = system: 4T1; experiment: Cytotoxicity against mouse 4T1 cells assessed as reduction in cell viability; assay type: functional, cell-based
[3] = system: MDA-MB-231; experiment: Cytotoxicity against human MDA-MB-231 cells assessed as reduction in cell viability incubated for 72 hrs by SRB assay; assay type: functional, cell-based; settings: MDA-MB-231, 72 h
[4] = system: MDA-MB-231; experiment: Induction of immunogenic cell death-associated DAMP release in human MDA-MB-231 cells assessed as increase in CRT expression level by measuring increase in green fluorescence intensity at 1 to 10 uM incubated for 24 hrs by DAPI staining based immunofluorescence analysis; assay type: functional; settings: dose 1-10 µM
[5] = Toxicity against Balb/c mouse implanted with mouse 4T1 cells assessed as effect on body weight changes at 25 to 50 mg/kg, po administered daily for 15 days; assay type: organism-based; settings: in vivo, 360 h, dose 25-50 mg/kg, time 15 day
[6] = Toxicity against Balb/c mouse implanted with mouse 4T1 cells assessed as effect on morphological changes in heart at 25 to 50 mg/kg, po administered daily for 15 days by Hematoxylin-Eosin staining based analysis; assay type: organism-based; settings: in vivo, 360 h, dose 25-50 mg/kg, time 15 day
[7] = molecular target: T2, Protein deacetylase HDAC6 (Homo sapiens, UniProt Q9UBN7); experiment: Inhibition of HDAC6 (unknown origin) using Ac-Leu-Gly-Lys(Ac)-AMC as substrate preincubated for 5 mins followed by substrate addition for 30 mins and measured following trypsin addition for 30 mins by fluorescence based analysis
T2 sequence (Q9UBN7 whole entry): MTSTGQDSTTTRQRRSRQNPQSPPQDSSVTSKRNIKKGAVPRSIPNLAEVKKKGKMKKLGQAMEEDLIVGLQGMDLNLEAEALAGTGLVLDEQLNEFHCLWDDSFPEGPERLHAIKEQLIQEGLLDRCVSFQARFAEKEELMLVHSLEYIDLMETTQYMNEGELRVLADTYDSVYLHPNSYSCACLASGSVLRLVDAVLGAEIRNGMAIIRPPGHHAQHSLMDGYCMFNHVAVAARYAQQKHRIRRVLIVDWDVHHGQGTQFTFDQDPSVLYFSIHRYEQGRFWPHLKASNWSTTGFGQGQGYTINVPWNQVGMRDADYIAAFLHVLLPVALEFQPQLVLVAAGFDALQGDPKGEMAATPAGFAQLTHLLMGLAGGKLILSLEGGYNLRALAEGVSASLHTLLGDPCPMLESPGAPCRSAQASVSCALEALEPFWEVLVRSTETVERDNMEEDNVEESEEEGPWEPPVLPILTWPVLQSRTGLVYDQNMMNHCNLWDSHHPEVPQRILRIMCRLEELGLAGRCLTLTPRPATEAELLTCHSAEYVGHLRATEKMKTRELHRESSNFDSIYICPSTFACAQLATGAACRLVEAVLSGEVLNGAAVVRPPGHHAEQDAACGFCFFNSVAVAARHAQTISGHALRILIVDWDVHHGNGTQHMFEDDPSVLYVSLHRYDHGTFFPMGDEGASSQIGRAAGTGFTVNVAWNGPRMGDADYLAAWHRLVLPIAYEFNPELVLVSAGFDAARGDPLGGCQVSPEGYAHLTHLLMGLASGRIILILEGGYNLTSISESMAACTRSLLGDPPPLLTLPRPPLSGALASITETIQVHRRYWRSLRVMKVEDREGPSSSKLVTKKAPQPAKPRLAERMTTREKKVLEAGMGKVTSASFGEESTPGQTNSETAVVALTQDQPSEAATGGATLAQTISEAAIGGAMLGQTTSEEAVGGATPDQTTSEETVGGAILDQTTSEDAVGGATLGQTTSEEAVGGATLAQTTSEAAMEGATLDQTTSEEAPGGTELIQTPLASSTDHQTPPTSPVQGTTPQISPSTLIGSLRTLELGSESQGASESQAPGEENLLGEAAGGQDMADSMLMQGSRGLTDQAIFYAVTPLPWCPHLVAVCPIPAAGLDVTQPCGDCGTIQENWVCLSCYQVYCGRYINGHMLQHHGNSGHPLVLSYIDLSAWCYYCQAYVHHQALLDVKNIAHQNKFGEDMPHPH

[8] = AUC (0 to infinity) in Balb/c mouse at 50 mg/kg, po measured for 24 hrs by LC-MS/MS analysis; assay type: ADME, organism-based; settings: in vivo
[9] = molecular target: Rho-associated protein kinase 2 (Homo sapiens, UniProt O75116); experiment: Inhibition of N-terminal GST-tagged human recombinant wild type ROCK2 (1 to 553 residues) expressed in baculovirus-infected Sf21 cells by HTRF KinEASE assay
Sequence of Rho-associated protein kinase 2 (O75116 whole entry, the tested form may be a part): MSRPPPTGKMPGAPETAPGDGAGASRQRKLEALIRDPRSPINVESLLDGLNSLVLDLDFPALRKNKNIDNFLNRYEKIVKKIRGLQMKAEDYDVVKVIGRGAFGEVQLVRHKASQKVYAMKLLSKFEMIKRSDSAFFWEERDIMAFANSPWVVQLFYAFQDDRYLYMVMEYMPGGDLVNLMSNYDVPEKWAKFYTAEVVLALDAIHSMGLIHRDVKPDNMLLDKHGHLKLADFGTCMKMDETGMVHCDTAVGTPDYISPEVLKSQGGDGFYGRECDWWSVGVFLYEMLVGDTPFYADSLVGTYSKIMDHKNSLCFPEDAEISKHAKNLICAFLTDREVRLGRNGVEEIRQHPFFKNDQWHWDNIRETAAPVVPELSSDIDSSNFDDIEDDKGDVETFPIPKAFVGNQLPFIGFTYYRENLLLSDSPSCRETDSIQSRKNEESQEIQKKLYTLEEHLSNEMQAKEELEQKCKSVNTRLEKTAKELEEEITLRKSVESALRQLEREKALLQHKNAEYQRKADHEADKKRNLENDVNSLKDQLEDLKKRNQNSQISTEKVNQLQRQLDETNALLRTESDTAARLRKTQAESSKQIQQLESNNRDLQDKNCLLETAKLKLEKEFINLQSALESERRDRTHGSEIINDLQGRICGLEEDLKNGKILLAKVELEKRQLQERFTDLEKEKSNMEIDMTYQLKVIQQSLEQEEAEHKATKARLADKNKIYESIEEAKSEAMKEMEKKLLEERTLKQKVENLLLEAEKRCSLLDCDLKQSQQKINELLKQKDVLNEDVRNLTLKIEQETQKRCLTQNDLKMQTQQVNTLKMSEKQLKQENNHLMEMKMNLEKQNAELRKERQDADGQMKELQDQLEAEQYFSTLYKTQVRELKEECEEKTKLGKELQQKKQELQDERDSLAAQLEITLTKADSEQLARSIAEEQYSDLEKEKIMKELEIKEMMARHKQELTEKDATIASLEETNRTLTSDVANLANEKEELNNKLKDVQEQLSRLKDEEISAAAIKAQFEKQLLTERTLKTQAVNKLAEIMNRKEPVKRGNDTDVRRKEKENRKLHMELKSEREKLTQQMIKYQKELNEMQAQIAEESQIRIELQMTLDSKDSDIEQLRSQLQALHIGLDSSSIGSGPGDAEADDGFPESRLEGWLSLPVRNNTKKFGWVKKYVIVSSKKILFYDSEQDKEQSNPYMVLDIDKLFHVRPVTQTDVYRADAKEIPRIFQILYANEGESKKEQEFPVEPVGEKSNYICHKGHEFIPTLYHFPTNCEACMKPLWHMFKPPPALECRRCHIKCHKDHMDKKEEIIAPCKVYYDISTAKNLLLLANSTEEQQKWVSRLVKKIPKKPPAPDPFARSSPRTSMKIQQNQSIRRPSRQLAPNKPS

[10] = system: 4T1; experiment: Antitumor immunity against mouse 4T1 cells implanted in Balb/c mouse assessed as increase in CD3+ T cells in tumor tissue at 25 mg/kg, po administered daily for 15 days by flow cytometry; assay type: functional, organism-based; settings: time 15.0 day
[11] = molecular target: T3, Histone deacetylase 8 (Homo sapiens, UniProt Q9BY41); experiment: Inhibition of HDAC8 (unknown origin) using Ac-Leu-Gly-Lys(tfa)-AMC as substrate preincubated for 5 mins followed by substrate addition for 30 mins and measured following trypsin addition for 30 mins by fluorescence based analysis
T3 sequence (Q9BY41 whole entry): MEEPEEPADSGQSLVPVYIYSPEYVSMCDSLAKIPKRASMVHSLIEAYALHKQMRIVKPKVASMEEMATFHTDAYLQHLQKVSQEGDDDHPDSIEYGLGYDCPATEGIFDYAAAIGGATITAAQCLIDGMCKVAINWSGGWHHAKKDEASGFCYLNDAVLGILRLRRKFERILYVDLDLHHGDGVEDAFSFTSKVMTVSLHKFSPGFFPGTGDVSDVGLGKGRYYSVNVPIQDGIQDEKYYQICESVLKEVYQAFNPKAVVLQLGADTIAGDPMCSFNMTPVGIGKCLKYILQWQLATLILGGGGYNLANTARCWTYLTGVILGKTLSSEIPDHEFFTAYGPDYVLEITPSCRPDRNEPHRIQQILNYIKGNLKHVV

[12] = molecular target: Histone deacetylase 5 (Homo sapiens, UniProt Q9UQL6); experiment: Inhibition of HDAC5 (unknown origin) using Ac-Leu-Gly-Lys(tfa)-AMC as substrate preincubated for 5 mins followed by substrate addition for 30 mins and measured following trypsin addition for 30 mins by fluorescence based analysis
Sequence of Histone deacetylase 5 (Q9UQL6 whole entry): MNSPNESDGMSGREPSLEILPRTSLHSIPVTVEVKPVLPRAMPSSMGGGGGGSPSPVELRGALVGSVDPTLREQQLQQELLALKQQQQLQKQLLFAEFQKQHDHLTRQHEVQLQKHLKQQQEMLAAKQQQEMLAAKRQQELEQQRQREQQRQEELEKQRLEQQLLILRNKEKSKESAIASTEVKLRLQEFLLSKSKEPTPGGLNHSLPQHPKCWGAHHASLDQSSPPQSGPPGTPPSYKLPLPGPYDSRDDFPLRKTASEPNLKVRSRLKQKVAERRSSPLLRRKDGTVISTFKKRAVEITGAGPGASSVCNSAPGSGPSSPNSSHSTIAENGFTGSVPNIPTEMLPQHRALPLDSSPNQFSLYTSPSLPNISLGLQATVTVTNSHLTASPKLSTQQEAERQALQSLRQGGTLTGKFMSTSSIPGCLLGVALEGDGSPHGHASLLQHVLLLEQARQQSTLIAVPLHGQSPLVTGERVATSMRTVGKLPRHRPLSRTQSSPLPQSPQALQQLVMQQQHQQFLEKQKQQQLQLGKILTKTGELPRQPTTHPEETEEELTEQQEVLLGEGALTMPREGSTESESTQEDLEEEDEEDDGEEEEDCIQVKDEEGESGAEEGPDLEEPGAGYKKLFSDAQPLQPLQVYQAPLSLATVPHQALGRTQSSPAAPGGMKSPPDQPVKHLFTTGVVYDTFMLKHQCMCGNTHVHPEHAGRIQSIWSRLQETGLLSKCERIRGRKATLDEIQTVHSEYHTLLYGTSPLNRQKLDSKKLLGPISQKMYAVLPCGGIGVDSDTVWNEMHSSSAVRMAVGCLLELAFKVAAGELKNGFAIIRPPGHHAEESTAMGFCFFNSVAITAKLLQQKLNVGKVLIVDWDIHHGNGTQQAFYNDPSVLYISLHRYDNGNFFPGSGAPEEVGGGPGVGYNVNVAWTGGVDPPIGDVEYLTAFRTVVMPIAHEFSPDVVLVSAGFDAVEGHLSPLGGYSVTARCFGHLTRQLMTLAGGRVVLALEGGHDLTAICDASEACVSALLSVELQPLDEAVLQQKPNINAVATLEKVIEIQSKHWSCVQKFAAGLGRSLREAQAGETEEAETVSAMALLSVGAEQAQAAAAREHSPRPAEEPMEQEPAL

IC50 [1]: > 10000 nM
IC50 [7]: 0.41 nM
AUC(0-inf) [8]: 5.95 ng·h/mL
IC50 [9]: 255 nM
IC50 [11]: 7.69 nM
IC50 [12]: > 10000 nM
Structure (SMILES): O=C(CCCCCCNC(=O)c1cc2cc(-c3cn[nH]c3)ccc2s1)NO
IC50 [2]: 730 nM
IC50 [3]: 370 nM
Activity [4]: Active
Activity [5]: Non-Toxic
Activity [6]: Non-Toxic
Activity [10]: Active
